Measurements published in patent US20030203864A1, “Treatment of cancer” (priority 2002, published 2003).
Strand notation (5' to 3'): a small letter for the sugar, then the base; units joined by * are phosphorothioate-linked, units joined directly phosphodiester-linked; [ ] holds rarer units or linkages, { } end groups; capitals alone tell only the bases. [invdT] = inverted (3'-3') thymidine; d = 2'-deoxy (DNA)

How the values were obtained:
[1] = test system: Egr-1; experiment: Transient transfection CAT reporter assay (pEBS1^3foscat), Egr-1-dependent gene expression; type: cell-based, bovine; settings: growth-arrested endothelial cells, 24 h; glucose 5 to 30 mM, insulin 100 nM, FGF-2 25 ng/ml
Protocol: Transient transfection analysis and, CAT assay. The endothelial cells were grown to 60-70% confluence in 100 mm. dishes and transiently transfected with 10 μg of the indicated chloramphenicol acetyl transferase (CAT)-based promoter reporter construct using FuGENE6 (Roche). The cells were rendered growth-quiescent by incubation 48 h in 0.25% FBS, and stimulated with various agonists for 24 h prior to harvest and assessment of CAT activity. CAT activity was measured and normalized to the concentration of protein in the lysates (determined by Biorad Protein Assay) as previously described (Khachigian, L. M. and Chesterman, C. N. (1999), Circ. Res., 84:1258-1267).

[2] = test system: EGR-1; experiment: Western blot of EGR-1 in HepG2 cells; type: cell-based, human
EGR-1, sequence (P18146 whole entry): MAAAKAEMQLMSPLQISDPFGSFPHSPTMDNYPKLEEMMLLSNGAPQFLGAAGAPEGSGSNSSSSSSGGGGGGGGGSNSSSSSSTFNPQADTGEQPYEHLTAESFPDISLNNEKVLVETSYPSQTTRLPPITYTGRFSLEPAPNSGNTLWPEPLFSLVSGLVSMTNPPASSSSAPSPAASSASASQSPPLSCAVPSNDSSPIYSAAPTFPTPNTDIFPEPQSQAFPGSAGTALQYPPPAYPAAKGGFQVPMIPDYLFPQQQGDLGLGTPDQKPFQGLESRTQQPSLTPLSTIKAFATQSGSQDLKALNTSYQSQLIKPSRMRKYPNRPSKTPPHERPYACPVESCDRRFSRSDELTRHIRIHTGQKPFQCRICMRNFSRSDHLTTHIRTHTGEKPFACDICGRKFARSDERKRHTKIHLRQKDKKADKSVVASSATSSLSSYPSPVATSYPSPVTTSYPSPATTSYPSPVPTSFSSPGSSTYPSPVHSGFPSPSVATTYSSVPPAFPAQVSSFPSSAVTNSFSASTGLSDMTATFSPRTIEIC

[3] = test system: Egr-1 mRNA; experiment: RT-PCR and Northern blot of Egr-1 mRNA in endothelial cells; type: cell-based, bovine; settings: growth-quiescent endothelial cells, within 1 h of agonist
Protocol: Northern blot analysis. Total RNA (12 μg/well) of growth-arrested endothelial cells (prepared using TRIzol Reagent (Life Technologies) in accordance with the manufacturer's instructions) previously exposed to various agonists for 1 h was resolved by electrophoresis on denaturing 1% agarose-formialdehyde gels. Following transfer overnight to Hybond-N+ nylon membranes (Amersham), the blots were hybridized with ^32P-labeled Egr-1 cDNA prepared using the Nick Translation Kit overnight (Roche). The membranes were washed and radioactivity visualized by autoradiography as previously described (Khachigian et al., 1995).
RT-PCR. Reverse transcription was performed with 8 μg of total RNA using M-MLV reverse transcriptase. Egr-1 cDNA was amplified (334 bp product (Delbridge, G. J. and Khachigian, L. M. (1997), Circ. Res., 81:282-288)) using Taq polymerase by heating for 1 min at 94° C., and cycling through 94° C. for 1 min, 94° C. for 1 min, 55° C. for 1 min, and 72° C. for 1 min. Following thirty cycles, a 5 min extension at 72° C. was carried out. Samples were electrophoresed on 1.5% agarose gel containing ethidium bromide and photographed under ultraviolet illumination. β-actin amplification (690 bp product) was performed essentially as above. The sequences of the primers were: Egr-1 forward primer (5′-GCA CCC AAC AGT GGC AAC-3′) (SEQ ID NO:18), Egr-1 reverse primer (5′-GGG ATC ATG GGA ACC TGG-3′) (SEQ ID NO: 19), β-actin forward primer (5′-TGACGGGGTCACCCACACTGTGCCCATCTA 3′) (SEQ ID NO:20), and β-actin reverse primer (5′-CTAGAAGCATTTGCGGTGGACGATGGAGGG-3′) (SEQ ID NO:21).

[4] = test system: Egr-1 protein; experiment: Western blot of Egr-1 protein in endothelial cells; type: cell-based, bovine; settings: for insulin-inducible Egr-1 protein synthesis: 0.8 μM oligonucleotide
Protocol: Antisense oligonucleotide delivery and Western blot analysis. Growth arrested cells in 100 mm dishes were incubated with the indicated oligonucleotides 24 h and 48 h after the initial change of medium. When oligonucleotide was added a second time, the cells were incubated with various concentrations of insulin and harvest 1 h subsequently. […] Lysates were resolved by electrophoresis on 8% denaturing SDS-polyacrylamide gels, transferred to PDVF nylon membranes (NEN-DuPont), blocked with skim milk powder, then incubated with polyclonal antibodies to Egr-1 (Santa Cruz Biotechnology, Inc) and monoclonal horseradish peroxidase-linked mouse anti-rabbit Ig secondary antibodies followed by chemiluminescent detection (NEN-DuPont).

[5] = test system: bovine aortic endothelial cells; experiment: 3H-thymidine incorporation into DNA, aortic endothelial cells; type: cell-based; settings: for basal endothelial DNA synthesis: no added insulin, 0.25% serum; for insulin-inducible DNA synthesis: inhibitor added 2 h before insulin 500 nM, PD98059 10 and 30 μM, wortmannin 0.3 and 1 μM, SB202190 100 and 500 nM
Protocol: ^3H-Thymidine incorporation into DNA. Growth-arrested endothelial cells at 90% confluence in 96 well plates were incubated twice with the oligonucleotides prior to the addition of insulin. […] After 18 h of exposure to insulin, the cells were pulsed with 200,000 cpm/well of methyl-3H thymidine (NEN-DuPont) for 6 h.

[6] = test system: bovine aortic endothelial cells; experiment: In vitro injury (scrape) endothelial regrowth; type: cell-based; settings: for endothelial regrowth stimulated by insulin after injury: 0.8 μM oligonucleotide
Protocol: In vitro injury. Growth-arrested cells at 90% confluence were incubated with antisense oligonucleotides and insulin at various concentrations as described above, then were scraped by drawing a sterile wooden toothpick across the monolayer (Khachigian et al., 1996). Following 48-72 h, the cells were fixed in 4% formalin, stained with hemotoxylin/eosin then photographed.

[7] = test system: Primary rat aortic SMCs; experiment: SMC proliferation assay (Coulter counter); type: cell-based
Protocol: Culture conditions and DNAzyme transfection. Primary rat aortic SMCs were obtained from Cell Applications, Inc., and grown in Waymouth's medium, pH 7.4, containing 10% fetal bovine serum (FBS), 50 μg/ml streptomycin and 50 IU/ml penicillin at 37° C. in a humidified atmosphere of 5% CO2 SMCs were used in experiments between passages 3-7. Pup rat SMCs (WKY12-22 (as described in Lernire et al, 1994, the entire contents of which are incorporated herein by reference)) were grown under similar conditions. […] After 18 h, the cells were washed with phosphate-buffered saline (PBS), pH 7.4 prior to transfection a second time in 5% FBS.
Assays of cell proliferation. Growth-quiescent SMCs in 96-well titer plates (Nunc-InterMed) were transfected with ED5 or ED5SCR as above, then exposed to 5% FBS at 37° C. for 72 h. The cells were rinsed with PBS, pH 7.4, trypsinized and the suspension was quantitated using an automated Coulter counter.

[8] = test system: NGFI-A protein; experiment: Western blot of NGFI-A protein in SMCs; type: cell-based, rat; settings: 5% FBS 1 h
Protocol: Culture conditions and DNAzyme transfection. Primary rat aortic SMCs were obtained from Cell Applications, Inc., and grown in Waymouth's medium, pH 7.4, containing 10% fetal bovine serum (FBS), 50 μg/ml streptomycin and 50 IU/ml penicillin at 37° C. in a humidified atmosphere of 5% CO2 SMCs were used in experiments between passages 3-7. Pup rat SMCs (WKY12-22 (as described in Lernire et al, 1994, the entire contents of which are incorporated herein by reference)) were grown under similar conditions. Subconfluent (60-70%) SMCs were incubated in serum-free medium (SFM) for 6 h prior to DNAzyme (or antisense ODN, where indicated) transfection (0.1 μM) using Superfect in accordance with manufacturer's instructions (Qiagen). After 18 h, the cells were washed with phosphate-buffered saline (PBS), pH 7.4 prior to transfection a second time in 5% FBS.
Western blot analysis. Growth-quiescent SMCs in 100 mm plates (Nunc-InterMed) were transfected with ED5 or ED5SCR as above, and incubated with 5% FBS for 1 h. The cells were washed in cold PBS, pH 7.4, and extracted in 150 mM NaCl, 50 mM Tris-HCI, pH 7.5, […], 0.1% SDS, 1% Triton X-100, 5 mM EDTA, 1% trasylol, 10μ/ml leupeptin, 1% aprotinin and 2 mM PMSF. Twenty four μg protein samples were loaded onto 10% denaturing SDS-polyacrylamide gels and electroblotted onto PVDF nylon membranes (NEN-DuPont). […]

## O=C[C@H](O)[C@@H](O)[C@H](O)[C@H](O)CO [glucose]
[1]
  Egr-1 binding activity (CAT reporter activity): did not increase

## SEQ ID NO:24: size matched DNAzyme with different sequence, 5′-tcagctgcaGGCTAGCTACAACGActcggcctt (DNA TCAGCTGCAGGCTAGCTACAACGACTCGGCCT; DNA, [invdT] at 3' end, backbone not given here) [reference compound]
[2]
  EGR-1 expression in HepG2 cells: no effect

## CCCCCCCCCCCCCC(=O)O[C@@H]1[C@@H](C)[C@@]2(O)[C@@H](C=C(CO)C[C@]3(O)C(=O)C(C)=C[C@@H]23)[C@@H]2C(C)(C)[C@]12OC(C)=O [PMA, Phorbol-12-myristrate 13-acetate, reference compound]
[3]
  Egr-1 mRNA levels: elevated steady-state Egr-1 mRNA levels

## AS2: Phosphorothioate-linked antisense oligonucleotide to translational start site of Egr-1 mRNA, 5′-CsTsTsGsGsCsCsGsCsTsGsCsCsAsT-3′ (DNA dC*dT*dT*dG*dG*dC*dC*dG*dC*dT*dG*dC*dC*dA*dT)
[4]
  insulin-inducible Egr-1 protein synthesis: inhibited
[5]; 0.4 μM oligonucleotide (vs 0.8 μM), insulin 500 nM
  insulin-inducible 3H-thymidine incorporation: less effectively
[5]; 0.8 μM oligonucleotide, insulin 500 nM and 1000 nM
  DNA synthesis inducible by insulin: significantly inhibited
[5]; 0.8 μM oligonucleotide
  basal endothelial DNA synthesis: inhibited
[6]
  endothelial regrowth stimulated by insulin after injury: significantly inhibited
[7]; 0.1 μM, 5% FBS, 3 days
  inhibition of SMC proliferation stimulated by serum: failed to inhibit proliferation
[7]; 1 μM
  SMC growth: able to inhibit SMC growth

## AS2C: size-matched phosphorothioate-linked counterpart of AS2 with similar base composition, 5′-GsCsAsCsTsTsCsTsGsCsTsGsTsCsC-3′ (DNA dG*dC*dA*dC*dT*dT*dC*dT*dG*dC*dT*dG*dT*dC*dC) [reference compound]
[4]
  insulin-inducible Egr-1 protein synthesis: lack of attenuation
[5]; 0.8 μM oligonucleotide
  basal endothelial DNA synthesis: little effect
[6]
  endothelial regrowth stimulated by insulin after injury: not significantly different

## Oc1ccc(-c2nc(-c3ccncc3)c(-c3ccc(F)cc3)[nH]2)cc1 [SB202190, reference compound]
[5]
  insulin-inducible DNA synthesis: failed to affect DNA synthesis

## fibroblast growth factor-2 [FGF-2]
[1]
  Egr-1 binding activity (CAT reporter activity): increased
[3]
  Egr-1 mRNA levels: elevated steady-state Egr-1 mRNA levels

## insulin
[1]
  Egr-1 binding activity (CAT reporter activity): did increase
[3]
  Egr-1 mRNA levels: elevated steady-state Egr-1 mRNA levels
[4]; insulin 100 nM and 500 nM, within 1 h
  Egr-1 protein synthesis: induced Egr-1 protein synthesis
[5]; insulin 100 nM
  increase in DNA synthesis: 100%
[5]; insulin 500 nM
  increase in DNA synthesis: 200%
[6]; insulin 500 nM at time of injury, 3 days
  population of cells in the denuded zone after injury: significantly increased

## EDC: DNAzyme with identical catalytic domain flanked by nonsense arms, 5′-CGCCATTAGGCTAGCTACAACGACCTAGTGAT-3′; 3′T inverted (DNA CGCCATTAGGCTAGCTACAACGACCTAGTGA; DNA, [invdT] at 3' end, backbone not given here)
[8]
  serum-induction of NGFI-A protein: neither ED5SCR nor EDC, a DNAzyme bearing an identical catalytic domain as ED5 and ED5SCR but flanked by nonsense arms had any influence

## COc1cccc(-c2cc(=O)c3ccccc3o2)c1N [PD98059, reference compound]
[5]
  insulin-inducible DNA synthesis: inhibited insulin-inducible DNA synthesis in a dose-dependent manner
